In PubChem BioAssay AID212 (DTP/NCI, 2004):
“And” between values parts separate entries of the source, which are not always exact repeats. Equal values may be shown once. Inconclusive results are not listed.

Tested on: BDF1 mice, colon carcinoma 38 sc, T/C %
Experiment: NCI In Vivo Anticancer Drug Screen. Data for tumor model Colon Carcinoma 38 (subcutaneous) in B6D2F1 (BDF1) mice
Settings: endpoint: median tumor weight (est.), schedule: Q07DX002 (ip), higher = larger tumour
Procedure, shortened: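 T/C readout: treated group (T) measurement over vehicle control group (C) measurement. Endpoint is survival or tumor size in mice bearing a transplanted tumor.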

[1] = dose: 25.0 mg/kg/injection, vehicle: saline with Tween-80
[2] = dose: 100.0 mg/kg/injection, vehicle: saline with Tween-80
[3] = dose: 200.0 mg/kg/injection, vehicle: saline with Tween-80
[4] = dose: 100.0 mg/kg/injection, vehicle: Klucel (hydroxypropylcellulose) (HPC)
[5] = dose: 200.0 mg/kg/injection, vehicle: saline

Structure (SMILES): O=C(Nc1ccccc1)c1c(O)[nH]c(=S)[nH]c1=O
- T/C (dose: 112.0 mg/kg/injection, vehicle: saline with Tween-80): 68 % of control
- T/C (dose: 225.0 mg/kg/injection, vehicle: saline with Tween-80): 51 % of control

Structure (SMILES): CCC[CH2][Hg][Cl]
- T/C (dose: 0.62 mg/kg/injection, vehicle: Klucel (hydroxypropylcellulose) (HPC)): 99 % of control
- T/C (dose: 2.5 mg/kg/injection, vehicle: Klucel (hydroxypropylcellulose) (HPC)): 92 % of control
- T/C (dose: 5.0 mg/kg/injection, vehicle: Klucel (hydroxypropylcellulose) (HPC)): 105 % of control
- T/C (dose: 20.0 mg/kg/injection, vehicle: Klucel (hydroxypropylcellulose) (HPC)): 113 % of control

Structure (SMILES): Cc1ccc2c(c1)n([O-])c1cc(Cl)ccc1[n+]2=O
- T/C [1]: 118 % of control
- T/C (dose: 50.0 mg/kg/injection, vehicle: saline with Tween-80): 102 % of control
- T/C [2]: 78 % of control
- T/C [3]: 76 % of control
- T/C (dose: 400.0 mg/kg/injection, vehicle: saline with Tween-80): 79 % of control

Structure (SMILES): CC[C@H]1CN2CCc3cc(OC)c(OC)cc3[C@@H]2C[C@@H]1C[C@H]1NCCc2cc(OC)c(OC)cc21
- T/C (dose: 1.75 mg/kg/injection, vehicle: saline): 57 % of control
- T/C (dose: 3.5 mg/kg/injection, vehicle: saline): 74 % of control
- T/C (dose: 7.0 mg/kg/injection, vehicle: saline): 84 % of control
- T/C (dose: 14.0 mg/kg/injection, vehicle: saline): 89 % of control
- T/C (dose: 28.0 mg/kg/injection, vehicle: saline): 74 % of control

Structure (SMILES): COc1cc2c(cc1O)C1C(O)C(O)C=C3CCN(C2)C31 (stereo unspecified)
- T/C (dose: 4.0 mg/kg/injection, vehicle: saline + alcohol): 105 % of control
- T/C (dose: 8.0 mg/kg/injection, vehicle: saline + alcohol): 79 % of control
- T/C (dose: 16.0 mg/kg/injection, vehicle: saline + alcohol): 105 % of control
- T/C (dose: 32.0 mg/kg/injection, vehicle: saline + alcohol): 73 % of control

Structure (SMILES): O=c1ssc(=Nc2ccccc2)n1-c1ccccc1
- T/C [4]: 97 % of control and 102 % of control

Structure (SMILES): Cc1ccc(C2NC(=O)c3ccccc3N2)s1 (stereo unspecified)
- T/C (dose: 25.0 mg/kg/injection, vehicle: Klucel (hydroxypropylcellulose) (HPC)): 99 % of control
- T/C (dose: 50.0 mg/kg/injection, vehicle: Klucel (hydroxypropylcellulose) (HPC)): 92 % of control
- T/C [4]: 103 % of control
- T/C (dose: 200.0 mg/kg/injection, vehicle: Klucel (hydroxypropylcellulose) (HPC)): 92 % of control
- T/C (dose: 400.0 mg/kg/injection, vehicle: Klucel (hydroxypropylcellulose) (HPC)): 84 % of control
- T/C (dose: 800.0 mg/kg/injection, vehicle: Klucel (hydroxypropylcellulose) (HPC)): 90 % of control

Structure (SMILES): c1ccc2sc(SSN3CC4CCC(CC4)C3)nc2c1
- T/C (dose: 12.5 mg/kg/injection, vehicle: saline with Tween-80): 110 % of control and 85 % of control
- T/C [1]: 82 % of control and 93 % of control
- T/C [2]: 63 % of control and 64 % of control
- T/C [3]: 113 % of control and 115 % of control

Structure (SMILES): CCCC(=O)O
- T/C (dose: 25.0 mg/kg/injection, vehicle: saline): 121 % of control
- T/C (dose: 50.0 mg/kg/injection, vehicle: saline): 105 % of control
- T/C [5]: 99 % of control

Structure (SMILES): CC(=O)Oc1c(C)[nH]ccc1=O
- T/C (dose: 6.25 mg/kg/injection, vehicle: saline): 107 % of control
- T/C [5]: 107 % of control
